The subject of test [1] is wild-type HIV-1 (NL4-3 strain). Briefly: Cell-based antiviral assay. The note with it: for fold less active than 12a in antiviral assays: compared with 12a.
The target in a further test is HIV-1 protease I50V/A71V (Human immunodeficiency virus type 1 group M subtype B, UniProt P12497, A559V/I538V/Q495K). It counts as biochemical, HIV-1 (NL4-3 strain). The note with it: Ki compared with 12a.
Another test concerns the target wild-type HIV-1 protease (Human immunodeficiency virus type 1 group M subtype B, UniProt P12497, Q495K). It counts as biochemical, HIV-1 (NL4-3 strain). The note with it: for fold less active than the corresponding tert-leucine analogue: 12b vs 12a, 15b vs 15a, inhibitory potency.

Molecules are shown by their SMILES.

For `Cc1cccc(C)c1OCC(=O)N[C@@H](Cc1ccccc1)C[C@H](O)[C@H](Cc1ccccc1)NC(=O)O[C@H]1CO[C@H]2OCC[C@H]21` [Compound 5, reference compound], the “fold better antiviral potency than 4” value in test [1] (compared with compound 4) was determined as 2 fold. Turning to `COC(=O)N[C@H](C(=O)N[C@@H](Cc1ccccc1)C[C@H](O)[C@H](Cc1ccccc1)NC(=O)O[C@H]1CO[C@H]2OCC[C@H]21)C(C)(C)C` [Compound 15a, (3R,3aS,6aR)-Hexahydrofuro[2,3-b]furan-3-yl ((2S,3S,5S)-3-hydroxy-5-((S)-2-((methoxycarbonyl)amino)-3,3-dimethylbutanamido)-1,6-diphenylhexan-2-yl)carbamate], on HIV-1 protease I50V/A71V, the “fold more active than 12a against the I50V/A71V variant” value was 4 fold.

On to `COC(=O)NC1(C(=O)N[C@@H](Cc2ccccc2)C[C@H](O)[C@H](Cc2ccccc2)NC(=O)O[C@H]2CO[C@H]3OCC[C@H]32)CCCC1` [Compound 15b, (3R,3aS,6aR)-Hexahydrofuro[2,3-b]furan-3-yl ((2S,3S,5S)-3-hydroxy-5-(1-((methoxycarbonyl)amino)cyclopentane-1-carboxamido)-1,6-diphenylhexan-2-yl)carbamate], for which the “fold less active than the corresponding tert-leucine analogue” value on wild-type HIV-1 protease is recorded as 560 fold. Take `COC(=O)N[C@H](C(=O)N[C@@H](Cc1ccccc1)[C@@H](O)C[C@H](Cc1ccccc1)NC(=O)O[C@H]1CO[C@H]2OCC[C@H]21)C(C)C` [Compound 12e, (3R,3aS,6aR)-Hexahydrofuro[2,3-b]furan-3-yl ((2S,4S,5S)-4-hydroxy-5-((S)-2-((methoxycarbonyl)amino)-3-methylbutanamido)-1,6-diphenylhexan-2-yl)carbamate]: at wild-type HIV-1 protease (valine analogue compared with alanine analogue 12d / 12a), the “fold less active against wild-type protease” value was determined as 4 fold. Moreover, in test [1], the “fold less active than 12a in antiviral assays” value was found to be 5 fold. Regarding `COC(=O)N[C@@H](C)C(=O)N[C@@H](Cc1ccccc1)[C@@H](O)C[C@H](Cc1ccccc1)NC(=O)O[C@H]1CO[C@H]2OCC[C@H]21` [Compound 12d, (3R,3aS,6aR)-Hexahydrofuro[2,3-b]furan-3-yl ((2S,4S,5S)-4-hydroxy-5-((S)-2-((methoxycarbonyl)amino)propanamido)-1,6-diphenylhexan-2-yl)carbamate], in test [1], the “fold less active than 12a in antiviral assays” value is given as 6 fold. Regarding `COC(=O)N[C@H](C(=O)N[C@@H](Cc1ccccc1)[C@@H](O)C[C@H](Cc1ccccc1)NC(=O)O[C@H]1CO[C@H]2OCC[C@H]21)C(C)(C)C` [Compound 12a, (3R,3aS,6aR)-Hexahydrofuro[2,3-b]furan-3-yl ((2S,4S,5S)-4-hydroxy-5-((S)-2-((methoxycarbonyl)amino)-3,3-dimethylbutanamido)-1,6-diphenylhexan-2-yl)carbamate], in test [1] (wild-type HIV-1, compared with 15a), the “fold more potent than 15a in antiviral assays” value came out at 3 fold. Regarding `COC(=O)NC1(C(=O)N[C@@H](Cc2ccccc2)[C@@H](O)C[C@H](Cc2ccccc2)NC(=O)O[C@H]2CO[C@H]3OCC[C@H]32)CCCC1` [Compound 12b, (3R,3aS,6aR)-Hexahydrofuro[2,3-b]furan-3-yl ((2S,4S,5S)-4-hydroxy-5-(1-((methoxycarbonyl)amino)cyclopentane-1-carboxamido)-1,6-diphenylhexan-2-yl)carbamate], the “fold less active than the corresponding tert-leucine analogue” value at wild-type HIV-1 protease is listed as greater than 2500 fold.

The values above are taken from article PMC7971191 (Journal of medicinal chemistry, 2020).
